Reference: patent US20230391760A1, “HETEROCYCLIC GLP-1 AGONISTS” (Gasherbrum Bio, Inc., priority 2020, published 2023)
pEC50: −log10 of the molar value.

Target: GLP-1 Receptor (Homo sapiens, UniProt P43220)
Test: GLP-1R agonist cAMP stimulation assay (HEK293/GLP1R/CRE-LUC cells, cAMP dynamic 2 Kit)
Type: cell-based
Conditions: HEK293/CRE-Luc cell line stably expressing the GLP-1 Receptor, 30 min at 37° C.
Protocol: Activation of GLP-1 receptor is known to stimulate cyclic AMP (cAMP) production in cells which indicates primary coupling to the Gαs subunit of the G protein heterotrimeric complex. […] To optimize functional activity directed toward Gαs coupling, a HEK293/CRE-Luc cell line developed by HDB stably expressing the GLP-1 Receptor was used. 200×concentration of compound working solutions were prepared (Agilent Technologies Bravo) with 1/2 log serial dilution in 384-well Echo LDV plate (Labcyte, Cat #LP-0200). 50 nL/well 200× concentration of compound working solutions were moved to 384-well white low volume plate (Greiner,Cat #784075) using Labcyte ECHO550. 1×10^5 cells/mL HEK293/GLP1R/CRE-LUC(HD Biosciences) cell suspensions prepared with assay buffer[DPBS containing 0.5 mM IBMX(Sigma, Cat #15879) and 0.1% BSA (GENVIEW, Cat #FA016-100 g)], 10 uL cell suspensions were added to each well of previous generated assay plate which already contains 50 nl compound at 200×concentration using ThermoFisher Multidrop Combi (1000 cells/well). Seal the plate and incubate at 37° C. with 5% CO2 for 30 min. After incubation the cAMP assay signal was generated using cAMP dynamic 2 Kit (Cisbio). 5 μL cAMP-d2 working solution was added to each well, followed with 5 μL Anti-cAMP antibody-cryptate working solution added to each well using ThermoFisher Multidrop Combi. Incubate at room temperature for 1 hour protected from light.

Sequence of GLP-1 Receptor (P43220 24-463, species assumed): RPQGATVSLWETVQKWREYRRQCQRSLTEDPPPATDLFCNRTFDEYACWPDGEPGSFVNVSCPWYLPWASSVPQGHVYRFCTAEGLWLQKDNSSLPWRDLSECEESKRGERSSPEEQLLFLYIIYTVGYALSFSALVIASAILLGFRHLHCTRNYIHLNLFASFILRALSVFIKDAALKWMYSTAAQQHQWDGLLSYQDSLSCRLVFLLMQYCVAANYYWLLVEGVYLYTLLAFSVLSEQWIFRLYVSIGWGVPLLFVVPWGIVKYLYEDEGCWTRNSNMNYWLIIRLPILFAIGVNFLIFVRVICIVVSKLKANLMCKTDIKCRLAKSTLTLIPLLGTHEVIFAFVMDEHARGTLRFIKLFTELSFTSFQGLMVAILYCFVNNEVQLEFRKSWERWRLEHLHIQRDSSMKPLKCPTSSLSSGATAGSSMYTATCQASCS

SMILES | pEC50
CC(C(=O)Nc1ccc2c(c1)nc(CN1CCC(c3cccc(OCc4ccc(Cl)cc4F)n3)CC1)n2C[C@@H]1CCO1)n1ccnc1 (stereo partly drawn) [Compound 195a, N-{2-[(4-{6-[(4-chloro-2-fluorophenyl)methoxy]pyridin-2-yl}piperidin-1-yl)methyl]-1-{[(2S)-oxetan-2-yl]methyl}-1H-1,3-benzodiazol-5-yl}-2-(1H-imidazol-1-yl)propanamide] | 9.20
C[C@]1(c2ccc(Cl)cc2F)Oc2cccc(C3CCN(Cc4nc5cc(-c6noc(=O)[nH]6)nnc5n4C[C@@H]4CCO4)CC3)c2O1 [Compound 348a, 3-[6-({4-[(2S)-2-(4-chloro-2-fluorophenyl)-2-methyl-2H-1,3-benzodioxol-4-yl]piperidin-1-yl}methyl)-7-{[(2S)-oxetan-2-yl]methyl}-7H-imidazo[4,5-c]pyridazin-3-yl]-4,5-dihydro-1,2,4-oxadiazol-5-one] | 10.21
C[C@]1(c2ccc(Cl)cn2)Oc2cccc(C3CCN(Cc4nc5cc(-c6nnc(C(F)(F)F)[nH]6)nnc5n4C[C@H]4CCOC4)CC3)c2O1 [Compound 474a, 5-chloro-2-[(2S)-2-methyl-4-{1-[(7-{[(3R)-oxolan-3-yl]methyl}-3-[5-(trifluoromethyl)-4H-1,2,4-triazol-3-yl]-7H-imidazo[4,5-c]pyridazin-6-yl)methyl]piperidin-4-yl}-2H-1,3-benzodioxol-2-yl]pyridine] | 8.82
O=C(Nc1ccc2c(c1)nc(CN1CCC(c3cccc(OCc4ccc(Cl)cc4F)n3)CC1)n2C[C@@H]1CCO1)C1CCC2(CCC2)CO1 (stereo partly drawn) [Compound 197a, N-{2-[(4-{6-[(4-chloro-2-fluorophenyl)methoxy]pyridin-2-yl}piperidin-1-yl)methyl]-1-{[(2S)-oxetan-2-yl]methyl}-1H-1,3-benzodiazol-5-yl}-6-oxaspiro[3.5]nonane-7-carboxamide] | 8.37
C[C@]1(c2ccc(Cl)cn2)Oc2cccc(C3CCN(Cc4nc5cc(-c6nnc(C#N)[nH]6)nnc5n4C[C@@H]4CCO4)CC3)c2O1 [Compound 482a, 5-[6-({4-[(2S)-2-(5-chloropyridin-2-yl)-2-methyl-2H-1,3-benzodioxol-4-yl]piperidin-1-yl}methyl)-7-{[(2S)-oxetan-2-yl]methyl}-7H-imidazo[4,5-c]pyridazin-3-yl]-4H-1,2,4-triazole-3-carbonitrile] | 10.49
CC1(c2ccc(C#N)cc2Cl)Oc2cccc(C3CCN(Cc4nc5cc(-c6nnc(C(F)(F)F)[nH]6)ccc5n4C[C@@H]4CCO4)CC3)c2O1 (stereo partly drawn) [Compound 353a, 3-chloro-4-(2-methyl-4-{1-[(1-{[(2S)-oxetan-2-yl]methyl}-5-[5-(trifluoromethyl)-4H-1,2,4-triazol-3-yl]-1H-1,3-benzodiazol-2-yl)methyl]piperidin-4-yl}-2H-1,3-benzodioxol-2-yl)benzonitrile] | 10.59
CC1(c2ccc(Cl)cc2F)Oc2cccc(C3CCN(Cc4nc5cc(-c6noc(=O)[nH]6)ccc5n4CC4(C#N)CC4)CC3)c2O1 (centres unmarked) [Compound 231a, 1-((2-((4-(2-(4-chloro-2-fluorophenyl)-2-methylbenzo[d][1,3]dioxol-4-yl)piperidin-1-yl)methyl)-5-(5-oxo-4,5-dihydro-1,2,4-oxadiazol-3-yl)-1H-benzo[d]imidazol-1-yl)methyl)cyclopropane-1-carbonitrile] | 10.51
O=C(Nc1ccc2c(c1)nc(CN1CCC(c3cccc(OCc4ccc(Cl)cc4F)n3)CC1)n2C[C@@H]1CCO1)C1CC(F)(F)C1 [Compound 152a, N-{2-[(4-{6-[(4-chloro-2-fluorophenyl)methoxy]pyridin-2-yl}piperidin-1-yl)methyl]-1-{[(2S)-oxetan-2-yl]methyl}-1H-1,3-benzodiazol-5-yl}-3,3-difluorocyclobutane-1-carboxamide] | 9.06
Fc1cc(Cl)ccc1COc1ccc(F)c(N2CCN(Cc3nc4cc(-c5nnc(C(F)(F)F)[nH]5)ncc4n3C[C@@H]3CCO3)CC2)n1 [Compound 501a, 1-{6-[(4-chloro-2-fluorophenyl)methoxy]-3-fluoropyridin-2-yl}-4-[(3-{[(2S)-oxetan-2-yl]methyl}-6-[5-(trifluoromethyl)-4H-1,2,4-triazol-3-yl]-3H-imidazo[4,5-c]pyridin-2-yl)methyl]piperazine] | 10.42
CC1(c2ccc(Cl)cc2)Oc2cccc(C3CCN(Cc4nc5cc(-c6noc(=O)[nH]6)cnc5n4C[C@@H]4CCO4)CC3)c2O1 (stereo partly drawn) [Compound 330a, 3-[2-({4-[2-(4-chlorophenyl)-2-methyl-2H-1,3-benzodioxol-4-yl]piperidin-1-yl}methyl)-3-{[(2S)-oxetan-2-yl]methyl}-3H-imidazo[4,5-b]pyridin-6-yl]-4,5-dihydro-1,2,4-oxadiazol-5-one] | 9.01
CC1(c2ccc(F)cc2F)Oc2cccc(C3CCN(Cc4nc5cc(-c6nnc(C(F)(F)F)[nH]6)ccc5n4C[C@@H]4CCO4)CC3)c2O1 (stereo partly drawn) [Compound 259a, 2-({4-[2-(2,4-difluorophenyl)-2-methyl-2H-1,3-benzodioxol-4-yl]piperidin-1-yl}methyl)-1-{[(2S)-oxetan-2-yl]methyl}-5-[5-(trifluoromethyl)-4H-1,2,4-triazol-3-yl]-1H-1,3-benzodiazole] | 10.13
O=C(O)Cc1ccc2c(c1)nc(CN1CCC(c3cccc(OCc4ccc(Cl)cc4F)n3)CC1)n2C[C@@H]1CCO1 [Compound 110a, (S)-2-(2-((4-(6-((4-chloro-2-fluorobenzyl)oxy)pyridin-2-yl)piperidin-1-yl)methyl)-1-(oxetan-2-ylmethyl)-1H-benzo[d]imidazol-5-yl)acetic acid] | 7.80
O=c1[nH]c(-c2cnc3c(c2)nc(CN2CC=C(c4ccc(F)c(OCc5ccc(Cl)cc5F)c4)CC2)n3C[C@@H]2CCO2)no1 [Compound 293a, 3-{2-[(4-{3-[(4-chloro-2-fluorophenyl)methoxy]-4-fluorophenyl}-1,2,3,6-tetrahydropyridin-1-yl)methyl]-3-{[(2S)-oxetan-2-yl]methyl}-3H-imidazo[4,5-b]pyridin-6-yl}-4,5-dihydro-1,2,4-oxadiazol-5-one] | 8.55
CC1(c2ccc(C#N)cc2F)Oc2cccc(C3CCN(Cc4nc5cc(-c6nnc(C(F)(F)F)[nH]6)nnc5n4C[C@@H]4CCO4)CC3)c2O1 (stereo partly drawn) [Compound 273a, 3-fluoro-4-(2-methyl-4-{1-[(7-{[(2S)-oxetan-2-yl]methyl}-3-[5-(trifluoromethyl)-4H-1,2,4-triazol-3-yl]-7H-imidazo[4,5-c]pyridazin-6-yl)methyl]piperidin-4-yl}-2H-1,3-benzodioxol-2-yl)benzonitrile] | 10.72
O=C(Nc1ccc2c(c1)nc(CN1CCC(c3cccc(OCc4ccc(Cl)cc4F)n3)CC1)n2C[C@@H]1CCO1)C(F)n1cccn1 (stereo partly drawn) [Compound 194a, N-{2-[(4-{6-[(4-chloro-2-fluorophenyl)methoxy]pyridin-2-yl}piperidin-1-yl)methyl]-1-{[(2S)-oxetan-2-yl]methyl}-1H-1,3-benzodiazol-5-yl}-2-fluoro-2-(1H-pyrazol-1-yl)acetamide] | 9.33
C[C@H]1CN(c2nc(OCc3ccc(Cl)cc3F)ccc2F)CCN1Cc1nc2cc(-c3nnc(C(F)(F)F)[nH]3)nnc2n1C[C@@H]1CCO1 [Compound 514a, (2S)-4-{6-[(4-chloro-2-fluorophenyl)methoxy]-3-fluoropyridin-2-yl}-2-methyl-1-[(7-{[(2S)-oxetan-2-yl]methyl}-3-[5-(trifluoromethyl)-4H-1,2,4-triazol-3-yl]-7H-imidazo[4,5-c]pyridazin-6-yl)methyl]piperazine] | 10.15
FC(F)(F)c1nnc(-c2cnc3c(c2)nc(CN2CCC(c4cccc5c4OC[C@@H](c4ccc(Cl)cc4)O5)CC2)n3C[C@@H]2CCO2)[nH]1 [Compound 408a, 4-[(2R)-2-(4-chlorophenyl)-2,3-dihydro-1,4-benzodioxin-5-yl]-1-[(3-{[(2S)-oxetan-2-yl]methyl}-6-[5-(trifluoromethyl)-4H-1,2,4-triazol-3-yl]-3H-imidazo[4,5-b]pyridin-2-yl)methyl]piperidine] | 9.55
N#Cc1nnc(-c2cc3nc(CN4CCC(c5cccc(OCc6ccc(Cl)cc6F)n5)CC4)n(C[C@@H]4CCO4)c3cn2)[nH]1 [Compound 484a, 5-{2-[(4-{6-[(4-chloro-2-fluorophenyl)methoxy]pyridin-2-yl}piperidin-1-yl)methyl]-3-{[(2S)-oxetan-2-yl]methyl}-3H-imidazo[4,5-c]pyridin-6-yl}-4H-1,2,4-triazole-3-carbonitrile] | 11.20
O=C(CC(F)(F)F)Nc1ccc2c(c1)nc(CN1CCC(c3cccc(OCc4ccc(Cl)cc4F)n3)CC1)n2C[C@@H]1CCO1 [Compound 150a, N-{2-[(4-{6-[(4-chloro-2-fluorophenyl)methoxy]pyridin-2-yl}piperidin-1-yl)methyl]-1-{[(2S)-oxetan-2-yl]methyl}-1H-1,3-benzodiazol-5-yl}-3,3,3-trifluoropropanamide] | 9.21
O=C(Nc1ccc2c(c1)nc(CN1CCC(c3cccc(OCc4ccc(Cl)cc4F)n3)CC1)n2C[C@@H]1CCO1)C1CCS(=O)(=O)CC1 [Compound 156a, N-{2-[(4-{6-[(4-chloro-2-fluorophenyl)methoxy]pyridin-2-yl}piperidin-1-yl)methyl]-1-{[(2S)-oxetan-2-yl]methyl}-1H-1,3-benzodiazol-5-yl}-1,1-dioxo-1λ^6-thiane-4-carboxamide] | 8.52
